From article PMC11279616 (Pharmaceuticals, 2024)
Where no end group is shown, it is not given here.

How the values were obtained:
[1] = system: Vero E6 cells; type: cell-based, African green monkey; details: at 50 and at 100 μg, MTS
Procedure: For the MTS assay, VERO E6 cells (2 × 10^4/well) were seeded into 96-well plates in triplicate and cultured in growth medium. Then, different peptide concentrations were added, and the viability was tested every day for three consecutive days using the CellTiter […] Aqueous One Solution Cell Proliferation Assay kit (CTB169; Promega, Fitchburg, WI, USA) following the manufacturers manual. Untreated cells were used for value normalizations.

[2] = system: Vero E6 cells; details: 100 µg

Row | Sequence | concentration/toxicity ratio [1] | toxic effect [2]
1 | VTNATAPNTDVSVSLSMILQTISASI [pep6] | best concentration/toxicity ratio | –
2 | VVNTDSLSSVTNATSIQITAPASMLI [DPP4_270–295] | – | without observing any toxic effect
